Values quoted from earlier work in US9707174B2, “Aqueous ophthalmic solution of olopatadine” (Gavis Pharmaceuticals, priority 2015, dated 2017).

Details: pH about 7.0, room temperature, olopatadine by itself

soluble in water up to a concentration: about 0.18 w/v %
SMILES: CN(C)CC/C=C1/c2ccccc2COc2ccc(CC(=O)O)cc21 [olopatadine]
